For two compounds, Vmax results are on record in US8030048B2, “Enantioselective epoxide hydlrolase and method for preparing and enantiopure epoxide using the same” (Korea Ocean Research and Development Institute, priority 2005, dated 2011).

The experiment deals with T1, Erythrobacter litoralis HTCC2594 epoxide hydrolase rEEH1 (EEH1), SEQ ID NO: 13 (Erythrobacter litoralis, UniProt Q2NAV3).
T1 construct: microsomal-EH-like
T1 sequence (Q2NAV3 1-373): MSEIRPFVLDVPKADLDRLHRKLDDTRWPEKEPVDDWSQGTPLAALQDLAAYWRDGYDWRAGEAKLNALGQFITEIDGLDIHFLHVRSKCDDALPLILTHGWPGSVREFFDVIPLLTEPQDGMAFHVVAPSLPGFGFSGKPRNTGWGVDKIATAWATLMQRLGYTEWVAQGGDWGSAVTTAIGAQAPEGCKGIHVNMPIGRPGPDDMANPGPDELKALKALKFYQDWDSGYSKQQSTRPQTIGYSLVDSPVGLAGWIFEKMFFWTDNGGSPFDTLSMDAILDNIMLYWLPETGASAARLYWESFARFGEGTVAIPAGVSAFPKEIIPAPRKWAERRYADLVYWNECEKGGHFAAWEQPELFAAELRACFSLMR
The experiment is described as follows: Kinetic parameters of purified rEEH1 by GC analysis with (R)- or (S)-styrene oxide. The following applies: 100 mM potassium phosphate pH 8.0, 30° C. The class given is biochemical. The procedure: Kinetic parameters of the rEEH1, rEEH2, rEEH3, sEEH, nEEH, and rEEH were determined by a GC analysis using (R)- or (S)- styrene oxide substrate. 100 ul of purified EHases were mixed with various concentrations of (R)- or (S)- styrene oxide in a 10 ml tube containing 1 ml of potassium phosphate buffer (100 mM, pH 8.0), and shake-incubated at 200 rpm and a temperature of 30° C. The extraction mixtures were extracted with 2 ml of hexane, and enantiomeric excess [ee; ee=100×(S−R)/(S+R)] toward enantiopure styrene oxide was analyzed with a chiraldex gamma-cyclodextrin trifluoroacetyl(G-TA) capillary GC column. Wherein, the FIG. 8 was diagramed with GC analysis for the hydrolyzing activities of enantioselective EHases (rEEH1, rEEH2, and rEEH3) toward racemic styrene oxide.
Kinetic parameters were estimated by non-linear regression analysis using a Sigma Plot program, and various substrates as depicted in FIG. 1 were also tested for the enantioselective hydrolyzing activity by rEEH1, rEEH2, rEEH3, sEEH, nEEH, and rEEH.

In the case of `c1ccc([C@@H]2CO2)cc1` [(R)-styrene oxide], the Vmax came out at 2.3 µmol/min.
The figure for `c1ccc([C@H]2CO2)cc1` [(S)-styrene oxide] is 1.18 µmol/min.
